Reference: paper PMC3584441 (The Journal of membrane biology, 2013)
Where no end group is shown, it is not given here.

Test system: sheep erythrocytes
Assay: Hemolysis assay: decrease in absorbance
Format: cell-based
Conditions: grouped as hemolytic (yes) or non-hemolytic (no)

Compound | Hemolytic
CC[C@H](C)[C@H](NC(=O)[C@H](Cc1c[nH]c2ccccc12)NC(=O)[C@H](CCCCN)NC(=O)[C@@H](NC(=O)[C@H](CC(C)C)NC(=O)[C@H](CCCCN)NC(=O)CNC(=O)[C@@H](NC(=O)[C@@H](NC(=O)[C@H](CO)NC(=O)[C@@H](NC(=O)[C@@H](NC(=O)[C@H](CCCCN)NC(=O)[C@H](CCC(N)=O)NC(=O)[C@H](C)NC(=O)[C@H](CCSC)NC=O)[C@@H](C)CC)[C@@H](C)CC)[C@@H](C)O)[C@@H](C)CC)C(C)C)C(=O)N[C@H](C(=O)N[C@@H](CCCCN)C(=O)N[C@H](C(=O)N[C@H](C(=O)N[C@@H](CC(N)=O)C(=O)N[C@@H](CCCCN)C(=O)N[C@@H](Cc1ccccc1)C(=O)N[C@H](C(=O)N[C@@H](CCCCN)C(=O)N[C@@H](CCCCN)C(=O)O)[C@@H](C)O)C(C)C)[C@@H](C)O)[C@@H](C)CC (racemic) [DL-1] | yes
CC(C)C[C@H](NC=O)C(=O)N[C@@H](C)C(=O)N[C@@H](C)C(=O)N[C@@H](CC(=O)O)C(=O)N[C@@H](CC(C)C)C(=O)N[C@@H](CC(C)C)C(=O)N[C@@H](C)C(=O)N[C@@H](C)C(=O)N[C@@H](CC(C)C)C(=O)NCC(=O)N[C@@H](CC(=O)O)C(=O)N[C@@H](CC(C)C)C(=O)N[C@@H](C)C(=O)N[C@@H](CCCCN)C(=O)N[C@@H](Cc1c[nH]c2ccccc12)C(=O)N[C@@H](CC(C)C)C(=O)N[C@@H](CC(C)C)C(=O)N[C@@H](CC(=O)O)C(=O)N[C@@H](C)C(=O)N[C@@H](CC(C)C)C(=O)N[C@@H](C)C(=O)N[C@@H](CCCCN)C(=O)N[C@@H](C)C(=O)N[C@@H](C)C(=O)N[C@@H](CCCCN)C(=O)N[C@@H](CCCCN)C(=O)O (racemic) [DL-2a] | yes
CC[C@H](C)[C@H](NC(=O)[C@H](CCCCN)NC(=O)[C@H](CCCCN)NC(=O)[C@H](C)NC(=O)[C@H](CC(C)C)NC(=O)[C@H](C)NC(=O)[C@H](C)NC(=O)[C@H](CC(C)C)NC(=O)[C@H](C)NC(=O)[C@H](CCCCN)NC(=O)[C@H](CC(C)C)NC(=O)[C@H](CC(N)=O)NC(=O)[C@@H](NC(=O)[C@H](CCCCN)NC(=O)CNC(=O)[C@H](CC(C)C)NC(=O)[C@H](CC(C)C)NC(=O)[C@H](Cc1c[nH]c2ccccc12)NC(=O)CNC(=O)[C@H](C)N)[C@@H](C)CC)C(=O)N[C@@H](CC(C)C)C(N)=O [TP10W] | yes
CC[C@H](C)[C@H](NC(=O)[C@H](Cc1c[nH]c2ccccc12)NC(=O)[C@H](CCCCN)NC(=O)[C@@H](NC(=O)[C@H](CC(C)C)NC(=O)[C@H](CC(=O)O)NC(=O)CNC(=O)[C@@H](NC(=O)[C@@H](NC(=O)[C@H](CO)NC(=O)[C@@H](NC(=O)[C@@H](NC(=O)[C@H](CC(=O)O)NC(=O)[C@H](CCC(N)=O)NC(=O)[C@H](C)NC(=O)[C@H](CCSC)NC=O)[C@@H](C)CC)[C@@H](C)CC)[C@@H](C)O)[C@@H](C)CC)C(C)C)C(=O)N[C@H](C(=O)N[C@@H](CC(=O)O)C(=O)N[C@H](C(=O)N[C@H](C(=O)N[C@@H](CC(N)=O)C(=O)N[C@@H](CCCCN)C(=O)N[C@@H](Cc1ccccc1)C(=O)N[C@H](C(=O)N[C@@H](CCCCN)C(=O)N[C@@H](CCCCN)C(=O)O)[C@@H](C)O)C(C)C)[C@@H](C)O)[C@@H](C)CC [δ-Lysin, reference compound] | yes
AGWLLGDINLDALAALAKKIL-NH2 [TPW-1] | yes
AGWLLGDINLKALAALAKKIL-NH2 [TPW-3] | yes
AGWLLGKLALKALAALAKKLL-NH2 [TPW-2] | yes
GILKFLESAKKWLEAFLAEIMNS [MG-1] | yes
GLGKLLHAAKKLGKAWLGELLAA [MG-2] | yes
KWKLLKKLEKAGAALKEGLLKAGPALALLGAAAALAK-NH2 [CE-2] | yes
